Experimental data taken from patent publication US9915650B2, “Method of detection of cAMP and cGMP via a fluorophore and dequencher complex” (HOFFMANN-LA-ROCHE INC., priority 2006, dated 2018).
pIC50: −log10 of the molar value. Several values for one entry are separate records, joined by “and”; a condition that tells them apart may be missing. Equal entries are not always repeated. Entries after “also recorded” stand apart in the source; their conditions may differ. Where two headings read alike, the source gives them in different places. Values belong to the compound of their own block, whether it stands above or below them.

Columns and labels:
[1] = Quenching of free MR121 fluorescence by cyclic nucleotides and cAMP derivates (Stern-Volmer plot); assay type: binding; conditions: for association constant, Ks, with MR121 / quenching of MR121 (decrease of fluorescence intensity, fluorescence lifetime): 20 nM MR121 in PBS, 30 min RT; for association constant, Ks, with MR121: calculated from linear region (up to 3.2 mM) of I0/I plot; for quenching of MR121 (decrease of fluorescence intensity, fluorescence lifetime): quencher 0-12.8 mM; for quenching of MR121 in low concentrations: concentrations up to 10 μM (range of cellular concentrations)
Procedure: The fluorescent intensity was adjusted to about 60% of the maximal signal of the employed iCCD camera by using attenuation filters and varying exposure times.
(§1) Fluorescence and lifetime were measured after an incubation time of 30 minutes at RT.
In order to analyze the quenching mechanism, measurements of fluorescence intensity and fluorescence lifetime of free MR121 as a function of different molecules (Trp, cAMP, 2-AHA-cAMP, 8-AHA-cAMP, 8-ADOA-cAMP, 2′-AEC-cAMP, N-6-Aminohexyl-cAMP, 8-MBT-cAMP and 8-OH-cAMP, see FIG. 4, 5) were carried out.
as §1
In FIG. 5 the change in fluorescence intensity (I0/I) is plotted for all cAMP derivatives investigated.

[2] = Quenching of ATTO590 by 8-AHA-cAMP (Stern-Vollmer plot); assay type: binding; conditions: 20 nM ATTO590 in PBS, 30 min RT; linear region (up to 3.2 mM)
Procedure: (§2) All fluorescence intensity measurements were carried out by means of a plate:vision fluorescence reader (Evotec Technologies GmbH, Schnackenburgallee 114, D-22525 Hamburg, Germany) equipped with a high pressure Xe arc lamp using for the measurements with MR121 an excitation filter at 630 nm (bandwidth 50 nm) and an emission filter at 695 nm (bandwidth 55 nm) and for the measurements with Atto 700 an excitation filter at 655 nm (bandwidth 50 nm) and an emission filter at 710 nm (bandwidth 40 nm). The fluorescent intensity was adjusted to about 60% of the maximal signal of the employed iCCD camera by using attenuation filters and varying exposure times. The lifetime measurements were performed by means of a plate:vision TRF reader (Evotec Technologies GmbH, Schnackenburgallee 114, D-22525 Hamburg, Germany) with an OPO system as light source (GWU Lasertechnik Vertriebsgesellschaft m.b.H., 50374 Erftstadt, Germany) tuned to 630 nm for excitation and the emission filter at 695 nm.
(§3) 20 μl ATTO590 and ATTO655 respectively (in PBS, end concentration 20 nM) and 20 μl quencher (8-AHA-cAMP) in PBS (DMSO end concentration in the assay: 1.25%) were pipetted into a microtiter plate. Fluorescence and lifetime were measured after an incubation time of 30 minutes at RT. […] The association constant, Ks, was calculated from the linear region (up to 3.2 mM) of the plot.

[3] = Quenching of ATTO655 by 8-AHA-cAMP (Stern-Vollmer plot); assay type: binding; conditions: 20 nM ATTO655 in PBS, 30 min RT; linear region (up to 3.2 mM)
Procedure: as §2, §3

[4] = Solubility seen in the quenching plot (FIG. 5); assay type: physicochemical; conditions: above ˜5 mM, PBS, deviation from linearity of I0/I plot
From the text: I0/I: change in fluorescence intensity

anti-cAMP antibody = assay: cAMP/cGMP standard curves: displacement of tracer from anti-cAMP antibody, fluorescence readout; assay type: binding, mouse
CHO-K1 cells = assay: cAMP cellular assay, forskolin dose response curve; assay type: cell-based; conditions: Cricetulus griseus, 0.5 h; CHO-K1, 10,000 cells/well, 1 mM IBMX, 30 min at 37° C.
Procedure: Cell numbers from 2, 500 to 20, 000 cell/well were plated in 25 μl medium and incubated for 20 h at 37° C. The medium was removed and after adding 10 μl of PBS with 0.1% BSA and 1 mM IBMX the cells were incubated for 60 minutes at 37° C. 10 μl of forskolin dilutions in PBS+0.1% BSA+1 mM IBMX from 0.01 to 300 μM (final concentration in 20 μl assay volume) were added and incubated for another 30 minutes at 37° C.

[5] = literature value for tryptophane; cited from earlier work
[6] = 20 nM MR121-2-AHA-cAMP tracer, 40 nM antibody, without cells (FIG. 14), read-out: IC50, comparison of standard curves for cAMP and cGMP

SMILES: NCCCCCCNc1nc(N)c2ncn([C@@H]3O[C@@H]4COP(=O)(O)O[C@H]4[C@H]3O)c2n1 [2-AHA-cAMP, 2-(6-Aminohexyl)amino-cAMP]
association constant, Ks, with MR121 [1]: 512 M⁻¹

SMILES: NCCOCCOCCNc1nc2c(N)ncnc2n1[C@@H]1O[C@@H]2COP(=O)(O)O[C@H]2[C@H]1O [8-ADOA-cAMP, 8-(8-Amino-3,6-dioxaoctylamino)-cAMP]
association constant, Ks, with MR121 [1]: 475 M⁻¹

solubility [4]: solubility problems
SMILES: NCCCCCCNc1nc2c(N)ncnc2n1[C@@H]1O[C@@H]2COP(=O)(O)O[C@H]2[C@H]1O [8-AHA-cAMP, 8-(6-Aminohexyl)amino-cAMP]
association constant, Ks, with Atto590 [2]: 282 M⁻¹
association constant, Ks, with Atto655 [3]: 347 M⁻¹
association constant, Ks, with MR121 [1]: 514 M⁻¹

SMILES: Nc1ncnc2c1nc(SCCCCS)n2[C@@H]1O[C@@H]2COP(=O)(O)O[C@H]2[C@H]1O [8-MBT-cAMP, 8-(4-Mercaptobutylthio)-cAMP]
association constant, Ks, with MR121 [1]: 758 M⁻¹

SMILES: Nc1ncnc2c1[nH]c(=O)n2C1OC2COP(=O)(O)OC2C1O (stereo not shown) [8-OH-cAMP, 8-Hydroxy-cAMP]
association constant, Ks, with MR121 [1]: 236 M⁻¹

SMILES: NCCCCCCNc1ncnc2c1ncn2[C@@H]1O[C@@H]2COP(=O)(O)O[C@H]2[C@H]1O [N-6-Aminohexyl-cAMP]
quenching of MR121 (decrease of fluorescence intensity, fluorescence lifetime) [1]: no quenching at all

SMILES: Nc1ncnc2c1ncn2[C@@H]1O[C@@H]2COP(=O)(O)O[C@H]2[C@H]1O [cAMP, cyclic adenosine monophosphate]
pIC50 (anti-cAMP antibody; 5 nM Atto700-2-AHA-cAMP tracer, 5 nM antibody, without cells (FIG. 15), read-out: IC50, dose response curve with Atto700-2-AHA-cAMP tracer): 7.32
pIC50 (anti-cAMP antibody; [6]): 6.87
pIC50 (anti-cAMP antibody; 20 nM MR121-2-AHA-cAMP, 40 nM anti-cAMP antibody, 10'000 CHO-K1 cells/well, read-out: IC50, standard curve with cells): 6.92 and 6.99
pIC50 (anti-cAMP antibody; 20 nM MR121-2-AHA-cAMP, 40 nM anti-cAMP antibody, without cells (FIG. 8), read-out: IC50, standard curve without cells): 6.96
quenching of MR121 (decrease of fluorescence intensity, fluorescence lifetime) [1]: no quenching at all
quenching of MR121 in low concentrations [1]: neither cAMP nor cGMP quenches MR121; also recorded: neither cAMP nor cGMP quench the fluorophore

pIC50 (anti-cAMP antibody; [6]): 6.41
SMILES: Nc1nc2c(ncn2[C@@H]2O[C@@H]3COP(=O)(O)O[C@H]3[C@H]2O)c(=O)[nH]1 [cGMP, cyclic GMP]
quenching of MR121 (decrease of fluorescence intensity, fluorescence lifetime) [1]: quenches MR121 at higher concentrations
quenching of MR121 in low concentrations [1]: neither cAMP nor cGMP quenches MR121; also recorded: neither cAMP nor cGMP quench the fluorophore
concentration at which the nucleotide has quenching capabilities ([1]; fluorophore quenching): ≥ 1 mM

SMILES: C=C[C@@]1(C)CC(=O)[C@]2(O)[C@@]3(C)[C@@H](O)CCC(C)(C)[C@@H]3[C@H](O)[C@H](OC(C)=O)[C@@]2(C)O1 [forskolin]
pIC50 (CHO-K1 cells): 5.43

SMILES: N[C@@H](Cc1c[nH]c2ccccc12)C(=O)O [tryptophane]
association constant Ks with MR121, reported in the literature [5]: ~220 M⁻¹
quenching of MR121 (decrease of fluorescence intensity, fluorescence lifetime) [1]: decrease in fluorescence intensity without a change in fluorescence lifetime
